Measurements as given in article doi:10.1101/2023.04.18.537371v1 (bioRxiv, 2023).
Peptide text beside a SMILES is read from it.

Assays:
[1] = Bidirectional permeability and efflux in Caco-2 cells; type: in vitro ADME; conditions: human
[2] = tested on: Caco-2 cell monolayers; test: as above; type: in vitro ADME
[3] = Single-dose pharmacokinetics in beagle dogs; type: in vivo, beagle dog; conditions: for AUC0-last: n=3, mean
[4] = In vitro protein binding, rapid equilibrium dialysis; type: in vitro ADME; conditions: CD-1, mouse, plasma
[5] = as above; type: in vitro ADME; conditions: cynomolgus monkey, plasma
[6] = In vitro blood to plasma partitioning; type: in vitro ADME, dog
[7] = tested on: human hepatocytes; test: Hepatocyte stability; type: in vitro ADME; conditions: 1.00 μM
[8] = tested on: monkey hepatocytes; test: Metabolite identification in hepatocytes; type: in vitro ADME; conditions: cryopreserved monkey hepatocytes, FC-12738 10 μM, 37 °C, 240 min, LC-UV-MS
[9] = tested on: human hepatocytes; test: Metabolite identification in hepatocytes; type: in vitro ADME; conditions: cryopreserved human hepatocytes, FC-12738 10 μM, 37 °C, 240 min, LC-UV-MS
[10] = Metabolism of FC-12738 in SD rat urine, feces and bile; type: in vivo; conditions: SC 10 mg/kg FC-12738 single
[11] = biological target: T1, CYP1A2 (Homo sapiens, UniProt P05177); test: biochemical; type: in vitro ADME
T1 sequence (P05177 1-516): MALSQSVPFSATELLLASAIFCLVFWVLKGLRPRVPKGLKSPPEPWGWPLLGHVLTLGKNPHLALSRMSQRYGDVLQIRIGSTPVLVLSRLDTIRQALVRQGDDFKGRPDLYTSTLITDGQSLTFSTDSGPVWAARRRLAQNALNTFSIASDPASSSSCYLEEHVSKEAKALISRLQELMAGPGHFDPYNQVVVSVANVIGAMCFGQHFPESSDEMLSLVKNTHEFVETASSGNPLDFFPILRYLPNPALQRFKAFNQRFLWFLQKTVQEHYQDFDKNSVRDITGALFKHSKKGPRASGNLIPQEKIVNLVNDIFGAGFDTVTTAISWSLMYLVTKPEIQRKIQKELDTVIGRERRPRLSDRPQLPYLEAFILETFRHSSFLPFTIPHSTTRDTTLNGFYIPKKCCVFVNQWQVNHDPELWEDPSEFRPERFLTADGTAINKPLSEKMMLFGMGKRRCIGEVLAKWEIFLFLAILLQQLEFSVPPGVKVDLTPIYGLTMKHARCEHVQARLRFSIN

[12] = biological target: OATP1B3 (Homo sapiens, UniProt Q9NPD5); test: Transporter inhibition in HEK293 cells; type: in vitro ADME
[13] = biological target: OAT1 (Homo sapiens, UniProt Q4U2R8); test: Transporter inhibition in HEK293 cells; type: in vitro ADME
[14] = Plasma and brain levels in male CD-1 mice after a single IP dose; type: in vivo, CD-1 mouse; conditions: for Tissue Homogenate Conc / Plasma Conc: male CD-1 mice, IP 10 mg/kg single
[15] = 2.00 μM, with 10.0 μM GF120918, Caco-2, 120 min
[16] = 10.0 μM, with 10.0 μM GF120918, Caco-2, 120 min
[17] = 10.0 μM, without GF120918, Caco-2, 120 min
[18] = 100 μM, with 10.0 μM GF120918, Caco-2, 120 min
[19] = 100 μM, without GF120918, Caco-2, 120 min
[20] = male, beagle, dog, plasma, iv, 1 mg/kg
[21] = male, beagle, dog, plasma, sc, 5 mg/kg
[22] = male, CD-1, mouse, brain homogenate, ip, 10 mg/kg
[23] = male, CD-1, mouse, brain, ip, 10 mg/kg
[24] = male, CD-1, mouse, plasma, ip, 10 mg/kg

Chain of OATP1B3 (Q9NPD5 whole entry): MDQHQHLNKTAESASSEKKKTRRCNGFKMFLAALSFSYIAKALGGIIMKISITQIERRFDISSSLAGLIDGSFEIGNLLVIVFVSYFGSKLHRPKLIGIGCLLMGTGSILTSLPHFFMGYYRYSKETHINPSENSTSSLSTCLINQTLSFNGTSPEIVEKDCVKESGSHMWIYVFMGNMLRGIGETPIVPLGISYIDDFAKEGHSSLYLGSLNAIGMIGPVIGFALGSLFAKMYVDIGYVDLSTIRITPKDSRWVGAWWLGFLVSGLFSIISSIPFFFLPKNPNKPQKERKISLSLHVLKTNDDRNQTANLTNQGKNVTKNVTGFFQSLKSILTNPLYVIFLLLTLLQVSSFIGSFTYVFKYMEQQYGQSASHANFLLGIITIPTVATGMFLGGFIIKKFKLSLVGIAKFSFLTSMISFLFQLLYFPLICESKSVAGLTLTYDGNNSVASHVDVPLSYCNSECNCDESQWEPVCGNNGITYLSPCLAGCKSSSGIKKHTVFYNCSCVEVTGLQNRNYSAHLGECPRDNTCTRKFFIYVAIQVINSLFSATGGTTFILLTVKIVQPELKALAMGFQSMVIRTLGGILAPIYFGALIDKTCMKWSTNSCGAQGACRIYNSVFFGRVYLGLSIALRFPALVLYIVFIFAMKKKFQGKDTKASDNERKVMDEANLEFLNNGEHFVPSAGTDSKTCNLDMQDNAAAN
Chain of OAT1 (Q4U2R8 whole entry): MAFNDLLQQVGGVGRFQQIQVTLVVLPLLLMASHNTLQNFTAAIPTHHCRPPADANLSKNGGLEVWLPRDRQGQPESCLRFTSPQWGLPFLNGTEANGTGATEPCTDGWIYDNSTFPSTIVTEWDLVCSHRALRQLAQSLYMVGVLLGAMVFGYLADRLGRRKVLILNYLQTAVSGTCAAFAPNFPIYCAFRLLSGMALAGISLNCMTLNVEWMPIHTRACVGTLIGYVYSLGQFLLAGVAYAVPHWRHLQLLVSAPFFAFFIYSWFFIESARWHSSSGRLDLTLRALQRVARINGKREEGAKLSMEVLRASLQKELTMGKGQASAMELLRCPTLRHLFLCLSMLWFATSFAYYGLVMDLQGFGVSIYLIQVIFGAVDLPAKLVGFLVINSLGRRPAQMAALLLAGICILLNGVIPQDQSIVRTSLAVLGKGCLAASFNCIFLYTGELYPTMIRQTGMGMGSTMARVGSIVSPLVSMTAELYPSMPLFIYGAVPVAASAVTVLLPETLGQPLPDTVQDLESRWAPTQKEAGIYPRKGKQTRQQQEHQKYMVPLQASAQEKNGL

SMILES: CC(C)[C@@H](NC(=O)[C@H](N)Cc1ccc(O)cc1)C(=O)N[C@H](CC(=O)O)C(=O)N[C@H](CCCCN)C(=O)N[C@H](CCCNC(=N)N)C(=O)O [FC-12738, (D-Tyr)-(D-Val)-(D-Asp)-(D-Lys)-(D-Arg)] (HELM PEPTIDE1{[dY].[dV].[dD].[dK].[dR]}$$$$V2.0)
- efflux ratio at 120 min, 10 μM ([1]; Caco-2): 0.88
- efflux ratio at 120 min, 100 μM ([1]; Caco-2): 1.24
- efflux ratio at 120 min, 10 μM ([1]; Caco-2, with GF120918 10.0 μM): 1.13
- Mean %Solution Recovery A to B [2, 15]: <92.9%
- Mean %Solution Recovery B to A [2, 15]: <96.5%
- Mean %Solution Recovery A to B [2, 16]: 89.9%
- Mean %Solution Recovery B to A [2, 16]: 96.5%
- Mean %Solution Recovery A to B [2, 17]: 90.2%
- Mean %Solution Recovery B to A [2, 17]: 100.5%
- Efflux Ratio (ERi) [2, 18]: 1.23
- Mean %Solution Recovery A to B [2, 18]: 86.9%
- Mean %Solution Recovery B to A [2, 18]: 97.0%
- Mean %Solution Recovery A to B [2, 19]: 89.1%
- Mean %Solution Recovery B to A [2, 19]: 95.3%
- Permeability across the Caco-2 cell monolayer (conclusion) ([2]; 2.00, 10.0 and 100 μM): low permeable
- Tolerability / adverse effects in-life ([3]; male beagle dogs, IV 1 mg/kg or SC 5 mg/kg single): No adverse effect was observed
- AUC0-last ([3]; male beagle dogs, IV 1 mg/kg single): 2850 ± 439 ng·h/mL
- AUC0-last ([3]; male beagle dogs, SC 5 mg/kg single): 16100 ± 2510 ng·h/mL
- bioavailability ([3]; male beagle dogs, SC 5 mg/kg, calculated with mean AUC0-last and nominal dose): 112%
- AUC(0-inf) [3, 20]: 2900 ng·h/mL
- C0 [3, 20]: 4820 ng/mL
- Vd [3, 20]: 0.302 L/kg
- clearance [3, 20]: 5.85 mL/min/kg
- AUC(0-inf) [3, 21]: 16200 ng·h/mL
- Cmax [3, 21]: 7300 ng/mL
- Tmax [3, 21]: 50 min
- half-life [3, 21]: 53 min
- fraction unbound at 6 h, 0.2 µM [4]: 0.449
- fraction unbound at 6 h, 2 µM [4]: 0.455
- fraction unbound at 6 h, 10 µM [4]: 0.479
- fraction unbound at 6 h, 0.2 µM [5]: 0.538
- fraction unbound at 6 h, 10 µM [5]: 0.736
- Mean erythrocyte to plasma ratio KE/P ([6]; dog whole blood, 0.200 μM, 37°C, 60 min): < 0.18
- Mean erythrocyte to plasma ratio KE/P ([6]; dog whole blood, 2.00 μM, 37°C, 60 min): 0.07
- Mean erythrocyte to plasma ratio KE/P ([6]; dog whole blood, 10.0 μM, 37°C, 60 min): < 0.14
- Mean blood-to-plasma ratio KB/P ([6]; dog whole blood, 10.0 μM, 37°C, 60 min, LC-MS/MS): 0.58
- tissue to tissue ratio at 1 h, 0.2 µM ([6]; dog, whole blood): 0.57
- tissue to tissue ratio at 1 h, 2 µM ([6]; dog, whole blood): 0.55
- intrinsic clearance CLint(hep) ([7]; cryopreserved human hepatocytes, 37.0°C, 120 min): < 1.9 μL/min/10^6 cells
- half-life ([7]; cryopreserved human hepatocytes, 37.0°C, 120 min, LC-MS/MS): > 372.7 min
- hepatic clearance CLint(liver) ([7]; scaled from human hepatocytes): < 5.2 mL/min/kg
- Relative Abundance (UV%) [8]: 89.24%
- Relative Abundance (UV%) [9]: 91.82%
- Relative MS abundance (%Total) ([10]; male SD rat bile): 100.00%
- Relative MS abundance (%Total) ([10]; male SD rat feces): 100.00%
- Relative MS abundance (%Total) ([10]; male SD rat urine): 99.93%
- IC50 [11]: > 100 µM
- Time-dependent inhibition of CYP1A2 ([11]; cutoff IC50 shift >= 1.5-fold, 30 min pre-incubation ± NADPH): no time-dependent inhibition
- IC50 [12]: > 100 µM
- IC50 [13]: > 100 µM
- Tissue Homogenate Conc ([14]; brain homogenate, 0.5 h, animal 2): 17.6 ng/mL
- Tissue Homogenate Conc ([14]; brain homogenate, 0.5 h, animal 3): 14.1 ng/mL
- Tissue Homogenate Conc ([14]; brain homogenate, 1 h, animal 1): 8.28 ng/mL
- Tissue Homogenate Conc ([14]; brain homogenate, 1 h, animal 2): 10.1 ng/mL
- Tissue Homogenate Conc ([14]; brain homogenate, 1 h, animal 3): 8.41 ng/mL
- Tissue Homogenate Conc ([14]; brain homogenate, 2 h, animal 1): 6.96 ng/mL
- Tissue Homogenate Conc ([14]; brain homogenate, 2 h, animal 2): 5.73 ng/mL
- Tissue Homogenate Conc ([14]; brain homogenate, 2 h, animal 3): 7.47 ng/mL
- Tissue Homogenate Conc ([14]; brain homogenate, 4 h, animal 1): 1.76 ng/mL
- Tissue Homogenate Conc ([14]; brain homogenate, 4 h, animal 2): 1.22 ng/mL
- Tissue Homogenate Conc ([14]; brain homogenate, 4 h, animal 3): 1.06 ng/mL
- level at 0.5 h [14, 22]: 16.4 ng/mL
- level at 1 h [14, 22]: 8.93 ng/mL
- level at 2 h [14, 22]: 6.72 ng/mL
- level at 4 h [14, 22]: 1.35 ng/mL
- tissue level at time at 0.5 h [14, 23]: 65.5 ng/g
- tissue level at time at 1 h [14, 23]: 35.7 ng/g
- tissue level at time at 2 h [14, 23]: 26.9 ng/g
- tissue level at time at 4 h [14, 23]: 5.39 ng/g
- level at 0.5 h [14, 24]: 2090 ng/mL
- level at 1 h [14, 24]: 1210 ng/mL
- level at 2 h [14, 24]: 627 ng/mL
- level at 4 h [14, 24]: 84.1 ng/mL
- level at 8 h [14, 24]: 16.7 ng/mL
- Plasma Conc ([14]; plasma, 0.5 h, animal 1, LC-MS/MS): 2230 ng/mL
- Plasma Conc ([14]; plasma, 0.5 h, animal 2): 1790 ng/mL
- Plasma Conc ([14]; plasma, 0.5 h, animal 3): 2260 ng/mL
- Plasma Conc ([14]; plasma, 1 h, animal 1): 885 ng/mL
- Plasma Conc ([14]; plasma, 1 h, animal 2): 1320 ng/mL
- Plasma Conc ([14]; plasma, 1 h, animal 3): 1420 ng/mL
- Plasma Conc ([14]; plasma, 2 h, animal 1): 543 ng/mL
- Plasma Conc ([14]; plasma, 2 h, animal 2): 592 ng/mL
- Plasma Conc ([14]; plasma, 2 h, animal 3): 745 ng/mL
- Plasma Conc ([14]; plasma, 4 h, animal 1): 97.9 ng/mL
- Plasma Conc ([14]; plasma, 4 h, animal 2): 74.6 ng/mL
- Plasma Conc ([14]; plasma, 4 h, animal 3): 79.8 ng/mL
- Plasma Conc ([14]; plasma, 8 h, animal 1): 19.1 ng/mL
- Plasma Conc ([14]; plasma, 8 h, animal 2): 17.5 ng/mL
- Plasma Conc ([14]; plasma, 8 h, animal 3): 13.4 ng/mL
